PubChem BioAssay (NCI)
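The compound was tested at five concentrations on cells cultured in 96-well plates, with a 48-hour exposure period. Here, GI50 denotes the concentration required for 50% inhibition of growth. TGI: total growth inhibition.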

Key:
Test in all cases: NCI tumour cell line growth inhibition, 48 h
LOX IMVI melanoma = system: LOX IMVI melanoma
UO-31 renal = system: UO-31 renal
SF-268 CNS = system: SF-268 CNS
HOP-62 NSCLC = system: HOP-62 NSCLC
MALME-3M melanoma = system: MALME-3M melanoma
SN12C renal = system: SN12C renal
OVCAR-4 ovarian = system: OVCAR-4 ovarian
COLO 205 colon = system: COLO 205 colon
K-562 leukemia = system: K-562 leukemia
RXF 393 renal = system: RXF 393 renal

CN=C1NC(=O)/C(=C/c2ccc3ncccc3c2)S1
GI50 (LOX IMVI melanoma): 6.74 µM | TGI (LOX IMVI melanoma): > 25 µM | GI50 (UO-31 renal): 5.29 µM | TGI (UO-31 renal): > 25 µM | GI50 (SF-268 CNS): 10.7 µM | TGI (SF-268 CNS): > 25 µM | GI50 (HOP-62 NSCLC): 10.3 µM | TGI (HOP-62 NSCLC): > 25 µM | GI50 (MALME-3M melanoma): 16 µM | TGI (MALME-3M melanoma): > 25 µM | GI50 (SN12C renal): 7.7 µM | TGI (SN12C renal): > 25 µM | GI50 (OVCAR-4 ovarian): 10.2 µM | TGI (OVCAR-4 ovarian): > 25 µM | GI50 (COLO 205 colon): 7.45 µM | TGI (COLO 205 colon): > 25 µM | GI50 (K-562 leukemia): 13.7 µM | TGI (K-562 leukemia): > 25 µM | GI50 (RXF 393 renal): 8.08 µM | TGI (RXF 393 renal): > 25 µM

Cn1cc(C2=C(c3ccc(OC[C@@H](O)CO)cc3)C(=O)NC2=O)c2ccccc21
GI50 (LOX IMVI melanoma): > 25 µM | TGI (LOX IMVI melanoma): > 25 µM | GI50 (UO-31 renal): > 25 µM | TGI (UO-31 renal): > 25 µM | GI50 (SF-268 CNS): > 25 µM | TGI (SF-268 CNS): > 25 µM | GI50 (HOP-62 NSCLC): > 25 µM | TGI (HOP-62 NSCLC): > 25 µM | GI50 (MALME-3M melanoma): > 25 µM | TGI (MALME-3M melanoma): > 25 µM | GI50 (SN12C renal): > 25 µM | TGI (SN12C renal): > 25 µM | GI50 (OVCAR-4 ovarian): > 25 µM | TGI (OVCAR-4 ovarian): > 25 µM | GI50 (COLO 205 colon): > 25 µM | TGI (COLO 205 colon): > 25 µM | GI50 (K-562 leukemia): > 25 µM | TGI (K-562 leukemia): > 25 µM | GI50 (RXF 393 renal): 16.4 µM | TGI (RXF 393 renal): > 25 µM

NNC(=O)c1cnn(-c2ccnc3c(C(F)(F)F)cccc23)c1N
GI50 (LOX IMVI melanoma): > 100 µM | TGI (LOX IMVI melanoma): > 100 µM | GI50 (UO-31 renal): > 100 µM | TGI (UO-31 renal): > 100 µM | GI50 (SF-268 CNS): > 100 µM | TGI (SF-268 CNS): > 100 µM | GI50 (HOP-62 NSCLC): > 100 µM | TGI (HOP-62 NSCLC): > 100 µM | GI50 (MALME-3M melanoma): > 100 µM | TGI (MALME-3M melanoma): > 100 µM | GI50 (SN12C renal): > 100 µM | TGI (SN12C renal): > 100 µM | GI50 (OVCAR-4 ovarian): > 100 µM | TGI (OVCAR-4 ovarian): > 100 µM | GI50 (COLO 205 colon): > 100 µM | TGI (COLO 205 colon): > 100 µM | GI50 (K-562 leukemia): > 100 µM | TGI (K-562 leukemia): > 100 µM | GI50 (RXF 393 renal): > 100 µM | TGI (RXF 393 renal): > 100 µM

COc1ccccc1NC(=O)c1ccc(/C=C/C(=O)c2nccn2C)cc1
GI50 (LOX IMVI melanoma): 0.278 µM | TGI (LOX IMVI melanoma): 0.605 µM | GI50 (UO-31 renal): 0.357 µM | TGI (UO-31 renal): 0.714 µM | GI50 (SF-268 CNS): 0.631 µM | TGI (SF-268 CNS): 1.97 µM | GI50 (HOP-62 NSCLC): 0.762 µM | TGI (HOP-62 NSCLC): 2.37 µM | GI50 (MALME-3M melanoma): 0.616 µM | TGI (MALME-3M melanoma): 1.73 µM | GI50 (SN12C renal): 0.592 µM | TGI (SN12C renal): 1.56 µM | GI50 (OVCAR-4 ovarian): 0.74 µM | TGI (OVCAR-4 ovarian): 5.67 µM | GI50 (COLO 205 colon): 0.552 µM | TGI (COLO 205 colon): 1.29 µM | GI50 (K-562 leukemia): 0.588 µM | TGI (K-562 leukemia): 11.6 µM | GI50 (RXF 393 renal): 0.42 µM | TGI (RXF 393 renal): 0.857 µM

NS(=O)(=O)c1ccc(-n2nc(-c3ccc(Br)cc3)ccc2=O)cc1
GI50 (LOX IMVI melanoma): > 10 µM | TGI (LOX IMVI melanoma): > 10 µM | GI50 (UO-31 renal): > 10 µM | TGI (UO-31 renal): > 10 µM | GI50 (SF-268 CNS): > 10 µM | TGI (SF-268 CNS): > 10 µM | GI50 (HOP-62 NSCLC): > 10 µM | TGI (HOP-62 NSCLC): > 10 µM | GI50 (MALME-3M melanoma): 7.71 µM | TGI (MALME-3M melanoma): > 10 µM | GI50 (SN12C renal): > 10 µM | TGI (SN12C renal): > 10 µM | GI50 (OVCAR-4 ovarian): > 10 µM | TGI (OVCAR-4 ovarian): > 10 µM | GI50 (COLO 205 colon): > 10 µM | TGI (COLO 205 colon): > 10 µM | GI50 (K-562 leukemia): 4.85 µM | TGI (K-562 leukemia): > 10 µM | GI50 (RXF 393 renal): > 10 µM | TGI (RXF 393 renal): > 10 µM

CC[n+]1ccc2c(c1)C(=O)c1nccc3c1c-2nc1ccccc13
GI50 (LOX IMVI melanoma): 2.19 µM | TGI (LOX IMVI melanoma): 7.93 µM | GI50 (UO-31 renal): 0.948 µM | TGI (UO-31 renal): 8.42 µM | GI50 (SF-268 CNS): 0.34 µM | TGI (SF-268 CNS): 3.63 µM | GI50 (HOP-62 NSCLC): 0.0618 µM | TGI (HOP-62 NSCLC): 1.19 µM | GI50 (MALME-3M melanoma): 0.762 µM | TGI (MALME-3M melanoma): 2.03 µM | GI50 (SN12C renal): 0.142 µM | TGI (SN12C renal): 0.66 µM | GI50 (OVCAR-4 ovarian): 0.941 µM | TGI (OVCAR-4 ovarian): 4.1 µM | GI50 (COLO 205 colon): 1.13 µM | TGI (COLO 205 colon): 5.22 µM | GI50 (K-562 leukemia): 3 µM | TGI (K-562 leukemia): 22.2 µM | GI50 (RXF 393 renal): 0.93 µM | TGI (RXF 393 renal): 3.68 µM
